From the supplement of paper PMC10307832

How the values were obtained:
Assay in all cases: relative viability (nuclei count vs DMSO), 5 days (fraction); higher = more cells survive
[1] = compound: CC1=CN=C(N=C1C2=CNC(=C2)C(=O)N[C@H](CO)C3=CC(=CC=C3)Cl)NC4=C(C=C(C=C4)F)Cl [VX-11e] + Cc1nc(NC(=O)N2CCC[C@H]2C(N)=O)sc1-c1ccnc(C(C)(C)C(F)(F)F)c1 [Alpelisib] (partner 2 µM)
Method in brief: (§1)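 Lung cancer cell lines were pin-tool dosed in 1536-well plates on the day after seeding, with either a lone drug or a fixed anchor-drug dose plus five library-drug doses (not always all listed) in √10 steps. Nuclei were counted on 4× images after 5 days. Relative viability is the ratio of treated-well to vehicle-well nuclei counts, with each value a median of duplicate plates.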

[2] = compound: CC1=CN=C(N=C1C2=CNC(=C2)C(=O)N[C@H](CO)C3=CC(=CC=C3)Cl)NC4=C(C=C(C=C4)F)Cl [VX-11e] + CC(=O)c1c(C)c2cnc(Nc3ccc(N4CCNCC4)cn3)nc2n(C2CCCC2)c1=O [Palbociclib] (partner 0.5 µM)
Method in brief: as §1

[3] = compound: CC1=CN=C(N=C1C2=CNC(=C2)C(=O)N[C@H](CO)C3=CC(=CC=C3)Cl)NC4=C(C=C(C=C4)F)Cl [VX-11e] + Nc1nc2[nH]cc(CCc3ccc(C(=O)N[C@@H](CCC(=O)O)C(=O)O)cc3)c2c(=O)[nH]1 [Pemetrexed] (partner 0.2 µM)
Method in brief: as §1

[4] = compound: CC1=CN=C(N=C1C2=CNC(=C2)C(=O)N[C@H](CO)C3=CC(=CC=C3)Cl)NC4=C(C=C(C=C4)F)Cl [VX-11e] + O=C(c1cc(Cc2n[nH]c(=O)c3ccccc23)ccc1F)N1CCN(C(=O)C2CC2)CC1 [Olaparib] (partner 8 µM)
Method in brief: as §1

| Cell Line | relative viability ([1]; first compound 0.04 µM) | relative viability ([1]; first compound 0.1265 µM) | relative viability ([1]; first compound 0.4 µM) | relative viability ([1]; first compound 1.265 µM) | relative viability ([1]; first compound 4 µM) | relative viability ([2]; first compound 0.04 µM) | relative viability ([2]; first compound 0.1265 µM) | relative viability ([2]; first compound 0.4 µM) | relative viability ([2]; first compound 1.265 µM) | relative viability ([2]; first compound 4 µM) | relative viability ([3]; first compound 0.04 µM) | relative viability ([3]; first compound 0.1265 µM) | relative viability ([3]; first compound 0.4 µM) | relative viability ([3]; first compound 1.265 µM) | relative viability ([3]; first compound 4 µM) | relative viability ([4]; first compound 0.04 µM) | relative viability ([4]; first compound 0.1265 µM) | relative viability ([4]; first compound 0.4 µM) | relative viability ([4]; first compound 1.265 µM) | relative viability ([4]; first compound 4 µM) |
| --- | --- | --- | --- | --- | --- | --- | --- | --- | --- | --- | --- | --- | --- | --- | --- | --- | --- | --- | --- | --- |
| NCI-H23 | 0.575 | 0.53 | 0.435 | 0.384 | 0.242 | 0.453 | 0.416 | 0.425 | 0.382 | 0.203 | 0.517 | 0.583 | 0.214 | 0.312 | 0.222 | 0.292 | 0.366 | 0.359 | 0.324 | 0.186 |
| NCI-H322M | 0.709 | – | 0.82 | 0.729 | 0.53 | 0.45 | 0.417 | 0.539 | 0.453 | 0.462 | 0.623 | 0.658 | 0.641 | 0.497 | 0.594 | 0.705 | 0.71 | 0.525 | 0.752 | 0.54 |
| NCI-H358 | 0.857 | 0.89 | – | 0.541 | 0.237 | 0.122 | 0.139 | 0.0851 | 0.148 | 0.118 | 0.188 | 0.171 | 0.17 | 0.171 | 0.136 | 0.594 | 0.525 | 0.525 | 0.441 | 0.163 |
| NCI-H441 | 0.804 | 0.709 | – | 0.977 | 0.633 | 0.175 | 0.232 | – | 0.157 | 0.165 | 0.27 | 0.253 | – | 0.259 | 0.238 | 0.553 | 0.572 | – | 0.702 | 0.591 |
| NCI-H460 | 0.49 | 0.359 | 0.39 | 0.0408 | 0.0113 | 0.198 | 0.195 | 0.146 | 0.0404 | 0.0179 | 0.0706 | 0.0577 | 0.0649 | 0.0564 | 0.0528 | 0.427 | 0.429 | – | 0.315 | 0.236 |
| NCI-H520 | 0.919 | 0.939 | 0.863 | 0.982 | 0.619 | 0.202 | 0.254 | 0.232 | 0.244 | 0.292 | 0.752 | 0.738 | 0.716 | 0.65 | 0.478 | 0.383 | 0.327 | 0.326 | 0.298 | 0.271 |
| NCI-H647 | 1.32 | 1.19 | 1.05 | 0.551 | 0.282 | 0.37 | 0.346 | 0.372 | 0.256 | 0.217 | 0.187 | 0.198 | 0.177 | 0.137 | 0.123 | 0.627 | 0.591 | 0.617 | 0.422 | 0.303 |
| NCI-H650 | – | 0.961 | 1.14 | – | 0.876 | 0.358 | 0.487 | 0.519 | 0.329 | 0.491 | 0.997 | 0.903 | 0.984 | 1.05 | 1.11 | 0.512 | 0.417 | 0.466 | 0.486 | 0.537 |
